How the values were obtained:
[1] = target: Epidermal growth factor receptor (Homo sapiens, UniProt P00533); assay: Inhibition of wild type EGFR (unknown origin)
[2] = target: Epidermal growth factor receptor (Homo sapiens, UniProt P00533, C797S/L858R/T790M); assay: Inhibition of EGFR L858R/T790M/C797S triple mutant (unknown origin)
[3] = target: Epidermal growth factor receptor (Homo sapiens, UniProt P00533, C797S/EX19DEL/T790M); assay: Inhibition of EGFR del19/T790M/C797S triple mutant (unknown origin) in presence of ATP by FRET assay
[4] = Antiproliferative activity against human NCI-H1975 cells harboring EGFR L858R/T790M/C797S mutant assessed as reduction in cell growth incubated for 72 hrs by SRB assay; type: functional, cell-based; conditions: NCI-H1975, 72 h
[5] = target: Tyrosine-protein kinase BTK (Homo sapiens, UniProt Q06187); assay: Inhibition of wild type BTK (unknown origin) using TK as substrate incubated for 1 hr by HTRF assay
BaF3 = assay: Antiproliferative activity against mouse BaF3 cells harboring EGFR L858R/T790M/C797S triple mutant assessed as inhibition of cell growth incubated for 72 hrs by CellTiter-Glo luminescent assay; type: functional, cell-based; conditions: BaF3, 72 h
[6] = Antiproliferative activity against human NCI-H1975 cells harboring EGFR L858R/T790M mutant assessed as cell growth inhibition incubated for 72 hrs by CellTiter Glo assay; type: functional, cell-based; conditions: NCI-H1975, 72 h
[7] = Antiproliferative activity against mouse Ba/F3 EGFR-T790M/C797S/L858R cells; type: functional, cell-based
[8] = Intrinsic clearance in human liver microsomes; type: ADME, Microsome
[9] = Clearance in cynomolgus monkey at 1 mg/kg, iv by LC-MS/MS analysis; type: ADME, organism-based, Macaca fascicularis; conditions: in vivo
A549 = assay: Antiproliferative activity against human A549 cells harboring wild type EGFR assessed as inhibition of cell proliferation incubated for 72 hrs by CCK8 assay; type: functional, cell-based; conditions: A549, 72 h

Chain of Epidermal growth factor receptor (Homo sapiens, UniProt P00533, C797S/L858R/T790M) (P00533 25-1210 T790M/C797S/L858R limits assumed): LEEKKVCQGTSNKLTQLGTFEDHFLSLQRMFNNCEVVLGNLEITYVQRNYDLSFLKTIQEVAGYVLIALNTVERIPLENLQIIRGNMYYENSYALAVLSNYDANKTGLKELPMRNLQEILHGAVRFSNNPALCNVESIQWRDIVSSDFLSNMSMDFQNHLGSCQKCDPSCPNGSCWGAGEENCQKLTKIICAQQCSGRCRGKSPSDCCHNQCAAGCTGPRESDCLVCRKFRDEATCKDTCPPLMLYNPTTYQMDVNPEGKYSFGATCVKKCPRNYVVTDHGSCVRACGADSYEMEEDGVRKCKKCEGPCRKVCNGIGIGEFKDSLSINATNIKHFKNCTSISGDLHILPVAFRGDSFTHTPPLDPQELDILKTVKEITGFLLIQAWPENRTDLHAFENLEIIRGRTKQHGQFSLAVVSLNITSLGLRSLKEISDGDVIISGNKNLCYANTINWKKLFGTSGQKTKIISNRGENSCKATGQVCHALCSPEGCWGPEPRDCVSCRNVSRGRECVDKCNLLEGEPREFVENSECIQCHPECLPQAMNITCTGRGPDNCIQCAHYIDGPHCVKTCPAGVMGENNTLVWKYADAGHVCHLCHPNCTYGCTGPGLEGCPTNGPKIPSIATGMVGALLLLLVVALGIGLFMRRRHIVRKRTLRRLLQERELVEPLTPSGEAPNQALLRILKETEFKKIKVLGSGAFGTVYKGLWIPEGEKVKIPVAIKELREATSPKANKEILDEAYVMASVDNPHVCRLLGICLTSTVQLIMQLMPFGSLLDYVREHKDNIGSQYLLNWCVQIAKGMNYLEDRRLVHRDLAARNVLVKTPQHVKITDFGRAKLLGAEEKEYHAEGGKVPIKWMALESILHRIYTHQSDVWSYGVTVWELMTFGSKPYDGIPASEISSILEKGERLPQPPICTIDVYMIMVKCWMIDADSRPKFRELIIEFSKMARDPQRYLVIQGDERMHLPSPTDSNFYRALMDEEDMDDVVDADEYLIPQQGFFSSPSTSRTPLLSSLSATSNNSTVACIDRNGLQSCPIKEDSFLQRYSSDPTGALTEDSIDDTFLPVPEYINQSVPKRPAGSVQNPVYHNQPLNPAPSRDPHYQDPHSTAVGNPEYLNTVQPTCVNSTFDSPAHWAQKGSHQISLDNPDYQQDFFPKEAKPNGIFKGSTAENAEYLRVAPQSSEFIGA
Chain of Epidermal growth factor receptor (Homo sapiens, UniProt P00533) (P00533 whole entry): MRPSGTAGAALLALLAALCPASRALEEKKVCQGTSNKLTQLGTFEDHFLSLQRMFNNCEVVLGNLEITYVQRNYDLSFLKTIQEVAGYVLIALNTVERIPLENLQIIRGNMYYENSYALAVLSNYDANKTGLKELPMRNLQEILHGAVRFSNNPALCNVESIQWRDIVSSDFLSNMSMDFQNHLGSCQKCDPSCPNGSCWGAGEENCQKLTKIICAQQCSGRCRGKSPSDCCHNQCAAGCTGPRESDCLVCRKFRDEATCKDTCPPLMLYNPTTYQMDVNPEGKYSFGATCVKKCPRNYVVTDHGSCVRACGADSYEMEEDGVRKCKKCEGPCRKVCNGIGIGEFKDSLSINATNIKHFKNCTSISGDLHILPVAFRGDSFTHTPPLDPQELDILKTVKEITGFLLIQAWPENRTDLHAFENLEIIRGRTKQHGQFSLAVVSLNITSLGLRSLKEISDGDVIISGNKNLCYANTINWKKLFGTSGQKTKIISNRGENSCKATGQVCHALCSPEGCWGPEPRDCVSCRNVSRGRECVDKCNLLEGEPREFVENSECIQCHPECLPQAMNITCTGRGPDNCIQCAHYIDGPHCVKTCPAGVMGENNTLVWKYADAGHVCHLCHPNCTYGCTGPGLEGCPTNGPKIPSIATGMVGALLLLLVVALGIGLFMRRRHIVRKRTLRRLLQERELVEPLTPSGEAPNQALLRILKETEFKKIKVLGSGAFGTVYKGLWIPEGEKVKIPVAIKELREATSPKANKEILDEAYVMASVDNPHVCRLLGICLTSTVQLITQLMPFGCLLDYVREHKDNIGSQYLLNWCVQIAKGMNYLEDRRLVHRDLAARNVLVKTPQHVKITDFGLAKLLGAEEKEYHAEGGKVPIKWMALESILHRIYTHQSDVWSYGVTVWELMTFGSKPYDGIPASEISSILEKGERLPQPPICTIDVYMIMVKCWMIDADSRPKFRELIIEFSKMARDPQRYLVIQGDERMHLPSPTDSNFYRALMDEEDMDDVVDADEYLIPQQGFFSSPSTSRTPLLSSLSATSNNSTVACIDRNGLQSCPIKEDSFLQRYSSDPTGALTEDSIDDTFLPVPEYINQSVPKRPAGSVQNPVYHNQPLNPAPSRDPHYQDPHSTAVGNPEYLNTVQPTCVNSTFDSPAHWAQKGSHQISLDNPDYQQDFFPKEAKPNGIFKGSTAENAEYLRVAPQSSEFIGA
Chain of Epidermal growth factor receptor (Homo sapiens, UniProt P00533, C797S/EX19DEL/T790M) (P00533 whole entry, looked up, stated change not applied): as the sequence (P00533 whole entry) above
Chain of Tyrosine-protein kinase BTK (Q06187 whole entry): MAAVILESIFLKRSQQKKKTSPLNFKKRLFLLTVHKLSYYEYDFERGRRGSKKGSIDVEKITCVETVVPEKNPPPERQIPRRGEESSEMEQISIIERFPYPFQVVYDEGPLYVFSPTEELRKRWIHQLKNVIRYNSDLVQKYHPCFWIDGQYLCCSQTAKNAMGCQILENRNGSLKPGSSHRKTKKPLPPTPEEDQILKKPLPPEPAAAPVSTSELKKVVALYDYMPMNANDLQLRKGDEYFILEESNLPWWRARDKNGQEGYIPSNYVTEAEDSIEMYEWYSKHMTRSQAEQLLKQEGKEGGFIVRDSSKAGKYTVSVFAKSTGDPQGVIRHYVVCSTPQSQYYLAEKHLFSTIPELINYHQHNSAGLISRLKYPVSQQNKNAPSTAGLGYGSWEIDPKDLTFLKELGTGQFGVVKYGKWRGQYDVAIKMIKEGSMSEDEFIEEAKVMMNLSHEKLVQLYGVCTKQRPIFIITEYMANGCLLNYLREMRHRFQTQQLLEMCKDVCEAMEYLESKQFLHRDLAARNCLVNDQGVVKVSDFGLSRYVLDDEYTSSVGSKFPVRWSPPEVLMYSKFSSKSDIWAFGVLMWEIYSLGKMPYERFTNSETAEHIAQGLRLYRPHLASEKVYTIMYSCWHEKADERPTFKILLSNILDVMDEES

IC50 [3] [nM]	IC50 (BaF3) [nM]	Structure (SMILES)	further results
–	–	C=CC(=O)Nc1ccc(OC)c(Nc2cc(-c3[nH]c(CCCO)nc3-c3ccc(F)cc3)ccn2)c1	IC50 [1]: 8 nM
–	–	OCCCc1nc(-c2ccc(F)cc2)c(-c2ccnc3[nH]c(-c4ccccc4)cc23)[nH]1	IC50 [1]: < 0.5 nM
–	–	CN1CCN(C2CCN(c3ccc(Nc4ncc(Cl)c(Nc5ccccc5P(C)(C)=O)n4)cc3Cl)CC2)CC1	IC50 [2]: 0.7 nM
0.2	–	CCP(=O)(CC)c1ccccc1Nc1nc(Nc2cc(-c3cnn(C)c3)c(N3CCOCC3)cc2OC)ncc1Cl	–
–	–	Cc1cc(Nc2ncc(Cl)c(Nc3ccccc3P(C)(C)=O)n2)ccc1N1CCC(N2CCN(C)CC2)CC1	IC50 [2]: 0.6 nM
0.19	–	COc1cc(N2CCC(N(C)C)CC2)c(-c2cnn(C)c2)cc1Nc1ncc(Cl)c(Nc2ccccc2P(C)(C)=O)n1	–
0.2	–	COc1cc(N2CCOCC2)c(-c2cnn(C)c2)cc1Nc1ncc(Cl)c(Nc2ccccc2P(C)(C)=O)n1	IC50 [4]: 0.122 nM; IC50 [5]: 4.4 nM
0.32	–	COc1cc(N2CCC(N3CCN(C)CC3)CC2)c(-c2cnn(C)c2)cc1Nc1ncc(Cl)c(Nc2ccccc2P(C)(C)=O)n1	–
–	–	COc1cc(N2CCC(N(C)C)CC2)c(-c2cn[nH]c2)cc1Nc1ncc(Cl)c(Nc2ccccc2P(C)(C)=O)n1	IC50 [2]: 0.5 nM
6.2	–	CCS(=O)(=O)n1cc2c3cc(ccc31)OCCCCCCOc1cc(ccc1N1CCOCC1)Nc1ncc(Cl)c-2n1	–
6.2	–	CCS(=O)(=O)n1cc2c3ccc(cc31)OCCCCCCOc1cc(c(Cl)cc1N1CCOCC1)Nc1ncc(Cl)c-2n1	–
24.2	–	CCS(=O)(=O)n1cc(-c2nc(Nc3cc(Cl)c(N4CCC(N5CCN(C)CC5)CC4)cc3OC)ncc2Cl)c2ccccc21	IC50 [2]: 145 nM
56.4	–	CCS(=O)(=O)n1cc2c3ccc(cc31)OCCCCCCOc1cc(c(C3CC3)cc1N1CCOCC1)Nc1ncc(Cl)c-2n1	–
–	29	CCOC1CN(C2CCN(c3cc(OC)c(Nc4ncc(Br)c(Nc5ccc6nccnc6c5P(C)(C)=O)n4)cc3C)CC2)C1	–
–	12.7	COc1cc(N2CCC(N3CC(N(C)C)C3)CC2)c(C)cc1Nc1ncc(Br)c(Nc2ccc3nccnc3c2P(C)(C)=O)n1	–
141	–	CCS(=O)(=O)n1cc2c3ccc(cc31)OCCCCCOc1cc(ccc1N1CCOCC1)Nc1ncc(Cl)c-2n1	–
33.3	–	COc1cc(N2CCC(N3CCN(C)CC3)CC2)ccc1Nc1ncc(Cl)c(-c2cn(S(=O)(=O)C(C)C)c3ccccc23)n1	IC50 [2]: 222 nM
0.08	8	CCc1cc(Nc2ncc(Br)c(Nc3ccc4c(c3P(C)(C)=O)OCCO4)n2)c(OC)cc1N1CCC(N2CC(N(C)C)C2)CC1	–
23.6	–	CCS(=O)(=O)n1cc2c3ccc(cc31)OCCCCCCOc1cc(c(C)cc1N1CCOCC1)Nc1ncc(Cl)c-2n1	–
–	14	CCOC1CN(C2CCN(c3cc(OC)c(Nc4ncc(Br)c(Nc5ccc6c(c5P(C)(C)=O)OCCO6)n4)cc3C)CC2)C1	–
25.6	–	COc1cc(N2CCC(N3CCN(C)CC3)CC2)ccc1Nc1ncc(Cl)c(-c2cn(S(=O)(=O)C3CC3)c3ccccc23)n1	IC50 [2]: 4.3 nM
19	–	CCS(=O)(=O)n1cc2c3cc(ccc31)OCCCCCOc1cc(ccc1N1CCOCC1)Nc1ncc(Cl)c-2n1	–
0.15	40	CCc1cc(Nc2ncc(Br)c(Nc3ccc4c(c3P(C)(C)=O)OCO4)n2)c(OC)cc1N1CCC(N2CC(N(C)C)C2)CC1	IC50 [2]: 0.4 nM
57	–	CCS(=O)(=O)n1cc2c3ccc(cc31)OCCCCCCOc1cc(ccc1N1CCOCC1)Nc1ncc(Cl)c-2n1	–
–	–	CNC(=O)c1cnc(Nc2ccnc(N3CCC(O)CC3)n2)cc1NC(C)C	IC50 [6]: 46 nM
–	7.1	COc1cc(N2CCC(N(C)C)CC2)ccc1Nc1ncc(C(=O)Oc2ccccc2)c(-c2c[nH]c3ccccc23)n1	IC50 [1]: 0.01 nM
–	615	COc1cc(N2CCN(C)CC2)ccc1Nc1ncc(C(=O)OC(C)C)c(-c2cn(C)c3ccccc23)n1	–

IC50 [3] [nM]	IC50 (BaF3) [nM]	Structure (SMILES)	further results
–	94	COc1cc(N2CCN(C)CC2)ccc1Nc1ncc(C(=O)Oc2ccccc2)c(-c2cn(C)c3ccccc23)n1	IC50 [1]: 0.05 nM
–	354	COc1cc(N2CCC(N)CC2)ccc1Nc1ncc(C(=O)OC(C)C)c(-c2cn(C)c3ccccc23)n1	–
–	17.7	COc1cc(N2CCC(N3CC(C)(CO)C3)CC2)c(C)cc1Nc1ncc(Br)c(Nc2ccc3nccnc3c2P(C)(C)=O)n1	–
–	12.7	COc1cc(N2CCC(N3CC(CC#N)C3)CC2)c(C)cc1Nc1ncc(Br)c(Nc2ccc3nccnc3c2P(C)(C)=O)n1	–
–	18	COc1cc(N2CCC(N3CC(C(C)(C)O)C3)CC2)c(C)cc1Nc1ncc(Br)c(Nc2ccc3nccnc3c2P(C)(C)=O)n1	–
–	18.7	COc1cc(N2CCC(N3CC(F)(CO)C3)CC2)c(C)cc1Nc1ncc(Br)c(Nc2ccc3nccnc3c2P(C)(C)=O)n1	–
–	22.3	COCC1(C)CN(C2CCN(c3cc(OC)c(Nc4ncc(Br)c(Nc5ccc6nccnc6c5P(C)(C)=O)n4)cc3C)CC2)C1	–
0.7	15	COCC1CN(C2CCN(c3cc(OC)c(Nc4ncc(Br)c(Nc5ccc6nccnc6c5P(C)(C)=O)n4)cc3C)CC2)C1	–
–	41	COc1cc(N2CCC(N3CC(CO)C3)CC2)c(C)cc1Nc1ncc(Br)c(Nc2ccc3nccnc3c2P(C)(C)=O)n1	–
–	5.6	CN1CCCN(c2ccc(Nc3ncc(Br)c(Nc4ccccc4NS(=O)(=O)C4CC4)n3)cc2)CC1	IC50 [1]: 0.61 nM
–	–	Cc1cc(Nc2ncc(Br)c(Nc3ccccc3NS(=O)(=O)C3CC3)n2)ccc1N1CCCN(C)CC1	IC50 [1]: 70.7 nM
–	–	CN(C)C1CCN(c2ccc(Nc3ncc(Br)c(Nc4ccccc4NS(=O)(=O)C4CC4)n3)cc2NS(C)(=O)=O)CC1	IC50 [7]: 780 nM
–	–	Cc1cc(Nc2ncc(Cl)c(Nc3ccccc3NS(=O)(=O)C3CC3)n2)ccc1N1CCC(N(C)C)CC1	IC50 [1]: 4.76 nM; IC50 [2]: 0.03 nM
–	–	COC1CCN(c2nccc(Nc3cc4c(C(C)C)ccc(N5CC(CS(C)(=O)=O)C5C)c4cn3)n2)CC1F (stereo not given)	IC50 [4]: 1.1 nM; CLH [8]: 89 µL/min/mg
–	–	CC(C)c1cnc(N2CC(O)C2C)c2cnc(Nc3ccnc(N4CCC(O)C(C)(F)C4)n3)cc12 (stereo not given)	IC50 [6]: 20 nM
–	–	COCCCc1nc(-c2ccc(F)cc2)c(-c2ccnc3[nH]c(-c4ccccc4)cc23)[nH]1	IC50 [1]: 6 nM; IC50 [2]: 6 nM
–	–	CC(C)c1ccc(N2CC(CS(C)(=O)=O)C2C)c2cnc(Nc3ccnc(N4CCC(O)C(C)(F)C4)n3)cc12 (stereo not given)	clearance [9]: 31.8 mL/min/kg
0.23	–	COc1cc(N2CCN(C)CC2)c(-c2cn[nH]c2)cc1Nc1ncc(Cl)c(Nc2ccccc2P(C)(C)=O)n1	–
89	–	CCS(=O)(=O)n1cc2c3cc(ccc31)OCCCCCCCCOc1cc(ccc1N1CCOCC1)Nc1ncc(Cl)c-2n1	–
–	–	CC(C)c1cnc(N2CC(CS(C)(=O)=O)C2)c2cnc(Nc3ccnc(N4CCC(O)C(C)(F)C4)n3)cc12 (stereo not given)	IC50 (A549): 5290 nM
–	–	C=CC(=O)Nc1ccc(OC)c(Nc2cc(-c3[nH]c(SCCOC)nc3-c3ccc(F)cc3)ccn2)c1	IC50 [2]: 35 nM
> 1000	–	CCS(=O)(=O)n1cc2c3cc(ccc31)OCCCCOc1cc(ccc1N1CCOCC1)Nc1ncc(Cl)c-2n1	–
–	–	COc1cc(N2CCN(C(C)=O)CC2)ccc1Nc1nccc(Nc2ccc(Nc3ccc(S(=O)(=O)F)cc3)cc2)n1	IC50 [1]: 210 nM; IC50 [2]: 110 nM
19	–	CCS(=O)(=O)n1cc2c3cc(ccc31)OCCCCCCCOc1cc(ccc1N1CCOCC1)Nc1ncc(Cl)c-2n1	–
–	–	CNc1ncc(C(C)C)c2cc(Nc3ccnc(N4CCC(O)C(F)C4)n3)ncc12 (stereo not given)	IC50 [6]: 12 nM
–	–	CC(C)c1cnc(N2CCC2)c2cnc(Nc3ccnc(N4CCC(O)C(C)(F)C4)n3)cc12 (stereo not given)	IC50 [6]: 9.1 nM
–	271	C=CC(=O)Nc1cc(Nc2ncc(C(=O)OC(C)C)c(-c3cn(C)c4ccccc34)n2)c(OC)cc1N(C)CCN(C)C [MOBOCERTINIB]	–

Reference: ChEMBL document CHEMBL6087440, “Catalytic Lysine745 targeting strategy in fourth-generation EGFR tyrosine kinase inhibitors to address C797S mutation resistance” (Eur J Med Chem, 2025)
